Assay results reported in patent publication US20240343729A1 (priority 2021, published 2024).

Tests used:
[1] = tested on: inflamed colonic mucosa from ulcerative colitis patients; assay: Ex-vivo culture of colon biopsies from ulcerative colitis patients, cytokine release (Protocol 1); type: cell-based, human; settings: UC colon biopsies, two patients; PF-02545920 0.1 μM and 1 μM, TAK-063 1 uM; 24 h; compared to DMSO vehicle
Experimental: The effect of selective PDE10A inhibition was tested on inflamed colonic mucosa from ulcerative colitis patients taken during routine endoscopy (Protocol 1 detailed below). These samples retain a disease phenotype in ex-vivo culture, secrete high basal levels of inflammatory cytokines, and represent a highly relevant and translational disease model. The effect of the PDE10A inhibitors on levels of the inflammatory cytokines IL-6 and IL-8 released from these tissue samples were measured. Both IL-6 and IL-8 are key regulators in ulcerative colitis pathology and their levels correlate with disease severity (Waldner M J et al. Master regulator of intestinal disease: IL-6 in chronic inflammation and cancer development. Semin Immunol. 26(1), 75-9 (2014); Bernardo D et al. IL-6 promotes immune responses in human ulcerative colitis and induces a skin-homing phenotype in the dendritic cells and T-cells they stimulate. Eur J Immunol. 42(5), 1337-53 (2012); Pearl D S, Cytokine mucosal expression in ulcerative colitis, the relationship between cytokine release and disease activity. J Crohns Colitis. 7(6), 481-9 (2013)).
These colon biopsies retain an inflammatory phenotype and secrete high levels of inflammatory cytokines in ex-vivo culture.
Biopsy tissue was obtained from inflamed colonic mucosa from ulcerative colitis or Crohn's disease patients during routine endoscopy. […] Biopsies were incubated in organ culture for 24 h with the addition of positive control compounds, or specific PDE10A inhibitors. Supernatants collected at the end of the experiment were snap-frozen and stored at −70° C. For the measurement of cytokines, the frozen culture supernatants were thawed and analysed for levels of the inflammatory cytokines using Luminex cytokine assay kits (R&D Systems) and an R&D Systems MAGPIX® analyser. Mean values±SDs were calculated for the levels of spontaneous cytokine production measured in biopsy culture supernatants from each treatment group.

[2] = tested on: other PDE family members; settings: literature value; read-out: IC50s for other PDE family members; cited from earlier work
[3] = tested on: inflamed colonic mucosa from pharmacotherapy treatment-refractory ulcerative colitis patients; assay: Ex-vivo culture of resected colon tissue from treatment-refractory ulcerative colitis patients, TNFα release (Protocol 2); type: cell-based, human; settings: 1 μM; two UC patients; SEB present; about 18 hours; compared to DMSO vehicle
[4] = tested on: isolated human neutrophil; assay: In vitro assay of IL-8 neutrophil activation; type: cell-based
[5] = tested on: inflamed colonic mucosa from Crohn's Disease patients; assay: Ex-vivo culture of colon biopsies from Crohn's disease patients, cytokine release (Protocol 1); type: cell-based, human; settings: 0.1 uM; 2 independent CD patient biopsies; compared to DMSO vehicle
Experimental: In addition, we tested the effect of selective PDE10A inhibition using 0.1 uM PF-2545920 on inflamed colonic mucosa from Crohn's Disease patients taken during routine endoscopy (Protocol 1).
Biopsy tissue was obtained from inflamed colonic mucosa from ulcerative colitis or Crohn's disease patients during routine endoscopy. Ex-vivo biopsy cultures for the analysis of inflammatory cytokine biomarkers were run as previously described (Vossenksmper A. et al. A CD3-specific antibody reduces cytokine production and alters phosphoprotein profiles in intestinal tissues from patients with inflammatory bowel disease. Gastroenterology, 147, 172-183 (2014)). Biopsies were incubated in organ culture for 24 h with the addition of positive control compounds, or specific PDE10A inhibitors. Supernatants collected at the end of the experiment were snap-frozen and stored at −70° C. For the measurement of cytokines, the frozen culture supernatants were thawed and analysed for levels of the inflammatory cytokines using Luminex cytokine assay kits (R&D Systems) and an R&D Systems MAGPIX® analyser. Mean values±SDs were calculated for the levels of spontaneous cytokine production measured in biopsy culture supernatants from each treatment group.

[6] = molecular target: T1, Human PDE10A2 (Homo sapiens (Human), UniProt Q9Y233); assay: cell-based; settings: Forskolin 10 μM; read-out: cAMP HTRF Assay in HEK 293 rhPDE10A2 cell line (pIC50) (converted)
T1 sequence (Q9Y233 267-1055): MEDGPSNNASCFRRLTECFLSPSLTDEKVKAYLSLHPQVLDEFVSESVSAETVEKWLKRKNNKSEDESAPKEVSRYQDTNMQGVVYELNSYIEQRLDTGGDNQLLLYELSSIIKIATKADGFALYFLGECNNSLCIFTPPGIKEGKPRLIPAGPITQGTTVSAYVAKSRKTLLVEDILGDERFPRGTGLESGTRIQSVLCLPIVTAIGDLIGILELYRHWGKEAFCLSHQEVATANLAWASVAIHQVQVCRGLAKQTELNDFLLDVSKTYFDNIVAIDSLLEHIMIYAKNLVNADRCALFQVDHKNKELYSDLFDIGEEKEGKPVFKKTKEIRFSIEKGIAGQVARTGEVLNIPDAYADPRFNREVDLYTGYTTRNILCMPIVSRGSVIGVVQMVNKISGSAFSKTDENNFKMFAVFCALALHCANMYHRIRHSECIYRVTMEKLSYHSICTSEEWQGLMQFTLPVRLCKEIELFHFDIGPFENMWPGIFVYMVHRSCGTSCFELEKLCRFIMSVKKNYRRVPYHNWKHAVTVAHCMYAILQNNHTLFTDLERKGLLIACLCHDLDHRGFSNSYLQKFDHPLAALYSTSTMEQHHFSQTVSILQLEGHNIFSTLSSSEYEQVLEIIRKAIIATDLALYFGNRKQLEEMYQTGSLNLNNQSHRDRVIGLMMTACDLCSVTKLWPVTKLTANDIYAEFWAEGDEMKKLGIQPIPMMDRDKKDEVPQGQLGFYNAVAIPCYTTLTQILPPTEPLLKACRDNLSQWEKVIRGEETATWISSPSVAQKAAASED
Experimental: Semi log compound dilutions starting at a final concentration of 10 μM were dispensed into a white 384 well plate, alongside DMSO and an Inhibited control using the Tecan D300e digital dispenser. HEK 293 cells overexpressing recombinant human PDE10A2 were seeded on top of the compounds at 2500 cells/well in a volume 5 μL/well. The plate was incubated at room temperature for 60 minutes. To induce endogenous cAMP, 5 μL/well of Forskolin at a final assay concentration of 10 μM was added to the plate. The plate was incubated at room temperature for a further 45 minutes. cAMP HTRF detection reagents were added, and the plate was incubated for 60 minutes at room temperature. […] Data was analysed using a 4-parameter fit.

[7] = molecular target: T1, Human PDE10A2; assay: biochemical; type: biochemical; settings: human PDE10A2 0.25 nM, cGMP 3 μM
Experimental: Semi Log compound dilutions starting at a final concentration of 50 μM were dispensed into a black 384 well plate alongside, DMSO and an Inhibited control using the Echo Acoustic dispenser. […] Data was analysed using a 4-parameter fit.

Row | Structure (SMILES) | secreted levels of IL-6 [1] | secreted levels of IL-8 [1] | IC50 [2] [nM] | secreted levels of TNFα [3] | IL-8 induced neutrophil activation [4] | secreted levels of IL-6 [5] | secreted levels of IL-8 [5] | IC50 [6] [nM] | PDE10A2 Phosphate Sensor Enzyme Assay (pIC50) [7]
1 | COc1cn(-c2ccc(-n3cccn3)cc2F)nc(-c2ccnn2-c2ccccc2)c1=O [TAK-063, 1-[2-fluoro-4-(1H-pyrazol-1-yl)phenyl]-5-methoxy-3-(1-phenyl-1H-pyrazol-5-yl)pyridazin-4(1H)-one] | significantly reduced | significantly reduced | > 5000 | – | – | – | – | – | –
2 | Cn1cc(-c2ccncc2)c(-c2ccc(OCc3ccc4ccccc4n3)cc2)n1 [PF-02545920] | significantly reduced | significantly reduced | > 1000 | significantly reduced | dose dependently inhibited | significantly reduced | significantly reduced | – | –
3 | CN(C)CCOc1cccc(-c2c[nH]c(C#Cc3nc(N4C[C@H]5COC[C@H]5C4)c4cnn(C)c4n3)n2)c1 [Example 10, 2-[3-[2-[2-[4-[(3aS,6aR)-1,3,3a,4,6,6a-Hexahydrofuro[3,4-c]pyrrol-5-yl]-1-methyl-pyrazolo[3,4-d]pyrimidin-6-yl]ethynyl]-1H-imidazol-4-yl]phenoxy]-N,N-dimethyl-ethanamine] | – | – | – | – | – | – | – | 0.661 | 10.4
